{"source": "patent US20250197864A1", "about": "“LNCRNA TRANSCRIPTS IN MELANOMAGENESIS” (The Regents of the University of California, priority 2021, published 2025)", "tested_on": "gene expression in D04 melanoma cells", "test": "RNA-Seq differential expression analysis (DESeq2)", "format": "cell-based, human", "method": "Total RNA was isolated using the RNeasy mini Kit (QIAGEN) following the manufacturer's protocol. Quality check for extracted RNA was done using 2100 Bioanalyzer (Agilent Technologies, USA) or Tapestation System (Agilent Technologies, USA). […] For samples used for identification of MAPK-responsive lncRNAs, paired-end, 101-bp sequencing was performed by Centrillion Genomic Services (Centrillion Biosciences, USA) on an Illumina HiSeq 2000. For DE gene analysis of ASO-transfected D04 samples, paired-end, 2×150-bp sequencing was performed by Genewiz (USA) on a Illumina HiSeq.\nSequence reads were aligned to the human genome (hg19) using TopHat (Version 2.0.11).\nDifferential expression (DE) analysis was done using DESeq2. Differentially expressed genes were defined by more than 1.5-fold changes (log 2 >0.58 or <−0.58) in expression with FDR<0.05. GO term analysis was done using DAVID Functional Annotation Clustering analysis.\nTo examine the biomolecular changes upon TRASH-inhibition in melanoma, D04 cells were treated with TRASH-ASOs (SEQ ID NO:15) and Control-ASOs and RNA was extracted and used for RNA-Seq. […] These GO terms consisted of genes encoding growth factors, tyrosine kinases, G protein coupled receptor subunits, and collagen subunits. Scatter plot diagram showing differential gene expression after TRASH-ASO treatment compared to Control-ASO treatment. (cut-off for significance was adjusted p-value <0.05). Data was obtained from RNA-Seq of D04 melanoma cells, treatment period was three days. (FIG. 5c)", "data": [{"sequence": "GACTGGAGATAATTAA (gapmer, pattern not given here) [SEQ ID NO: 15, GapmeR ASO targeting AC004540.4 (TRASH), exon region of both isoforms; used for in vitro experiments]", "values": [{"measurement": "log2FoldChange AC010327.3", "setting": "ENSG00000267577, up-regulated list", "result": 1.04}, {"measurement": "log2FoldChange CARD8-AS1", "setting": "ENSG00000268001, up-regulated list", "result": 0.7573}, {"measurement": "log2FoldChange AC005261.3", "setting": "ENSG00000268713, up-regulated list", "result": 0.7391}, {"measurement": "log2FoldChange AL513477.1", "setting": "ENSG00000269896, up-regulated list", "result": 1.066}, {"measurement": "log2FoldChange AL606834.1", "setting": "ENSG00000269906, up-regulated list", "result": 0.6043}, {"measurement": "log2FoldChange ZNF559-ZNF177", "setting": "ENSG00000270011, up-regulated list", "result": 0.8965}, {"measurement": "log2FoldChange AC112220.2", "setting": "ENSG00000271020, up-regulated list", "result": 0.8814}, {"measurement": "log2FoldChange AC112220.4", "setting": "ENSG00000271643, up-regulated list", "result": 0.8013}, {"measurement": "log2FoldChange AC004890.3", "setting": "ENSG00000271664, up-regulated list", "result": 0.9879}, {"measurement": "log2FoldChange AL365181.3", "setting": "ENSG00000272405, up-regulated list", "result": 1.112}, {"measurement": "log2FoldChange AL365203.2", "setting": "ENSG00000273038, up-regulated list", "result": 0.6423}, {"measurement": "log2FoldChange AC037198.1", "setting": "ENSG00000276107, up-regulated list", "result": 0.6896}, {"measurement": "log2FoldChange AC245041.2", "setting": "ENSG00000276850, up-regulated list", "result": 1.06}, {"measurement": "log2FoldChange ENSG00000279184 (Gene.name NA)", "setting": "ENSG00000279184, up-regulated list", "result": 0.592}, {"measurement": "log2FoldChange AC005261.5", "setting": "ENSG00000279541, up-regulated list", "result": 0.6302}, {"measurement": "log2FoldChange AC104581.4", "setting": "ENSG00000280046, up-regulated list", "result": 0.8564}, {"measurement": "log2FoldChange UCKL1-AS1", "setting": "ENSG00000280213, up-regulated list", "result": 0.6201}, {"measurement": "log2FoldChange LINC01173", "setting": "ENSG00000280744, up-regulated list", "result": 0.9254}, {"measurement": "log2FoldChange AC139493.2", "setting": "ENSG00000283235, up-regulated list", "result": 0.8882}, {"measurement": "log2FoldChange", "setting": "EPHA3 (ENSG00000044524)", "result": "−0.647"}, {"measurement": "log2FoldChange", "setting": "ETS2 (ENSG00000157557)", "result": 1.279}, {"measurement": "log2FoldChange", "setting": "EVI2A (ENSG00000126860)", "result": 1.514}, {"measurement": "log2FoldChange", "setting": "EXOC3L2 (ENSG00000283632)", "result": "−0.6947"}, {"measurement": "log2FoldChange", "setting": "FAM129A (ENSG00000135842)", "result": "−0.6591"}, {"measurement": "log2FoldChange", "setting": "FAM172BP (ENSG00000175841)", "result": 2.273}, {"measurement": "log2FoldChange", "setting": "FAM180A (ENSG00000189320)", "result": 2.047}, {"measurement": "log2FoldChange", "setting": "FAM198B-AS1 (ENSG00000248429)", "result": "−0.6307"}, {"measurement": "log2FoldChange", "setting": "FBXO2 (ENSG00000116661)", "result": "−0.638"}, {"measurement": "log2FoldChange", "setting": "FBXO9 (ENSG00000112146)", "result": "−0.5825"}, {"measurement": "log2FoldChange", "setting": "FBXO40 (ENSG00000163833)", "result": 1.589}, {"measurement": "log2FoldChange", "setting": "FGF1 (ENSG00000113578)", "result": "−0.5817"}, {"measurement": "log2FoldChange", "setting": "FHDC1 (ENSG00000137460)", "result": "−0.7072"}, {"measurement": "log2FoldChange", "setting": "FOSB (ENSG00000125740)", "result": 2.191}, {"measurement": "log2FoldChange", "setting": "FRK (ENSG00000111816)", "result": "−0.6911"}, {"measurement": "log2FoldChange", "setting": "FRRS1 (ENSG00000156869)", "result": "−0.5906"}, {"measurement": "log2FoldChange", "setting": "FYN (ENSG00000010810)", "result": "−0.6273"}, {"measurement": "log2FoldChange", "setting": "GABRA3 (ENSG00000011677)", "result": "−0.5841"}, {"measurement": "log2FoldChange", "setting": "GAPDHP33 (ENSG00000240244)", "result": 1.514}, {"measurement": "log2FoldChange", "setting": "GAREM1 (ENSG00000141441)", "result": "−0.6261"}, {"measurement": "log2FoldChange", "setting": "GAS1 (ENSG00000180447)", "result": "−0.6542"}, {"measurement": "log2FoldChange", "setting": "GAS7 (ENSG00000007237)", "result": "−0.5864"}, {"measurement": "log2FoldChange", "setting": "GGT5 (ENSG00000099998)", "result": "−0.6741"}, {"measurement": "log2FoldChange", "setting": "GNG2 (ENSG00000186469)", "result": "−0.6003"}, {"measurement": "log2FoldChange", "setting": "GNGT2 (ENSG00000167083)", "result": 1.241}, {"measurement": "log2FoldChange", "setting": "GPR162 (ENSG00000250510)", "result": "−0.5935"}, {"measurement": "log2FoldChange", "setting": "GPRIN3 (ENSG00000185477)", "result": "−0.66"}, {"measurement": "log2FoldChange", "setting": "GSG1 (ENSG00000111305)", "result": 2.332}, {"measurement": "log2FoldChange", "setting": "H2BFWT (ENSG00000123569)", "result": 2.336}, {"measurement": "log2FoldChange", "setting": "HDAC2-AS2 (ENSG00000228624)", "result": 1.256}, {"measurement": "log2FoldChange", "setting": "HDAC4 (ENSG00000068024)", "result": "−0.5923"}, {"measurement": "log2FoldChange", "setting": "HEY1 (ENSG00000164683)", "result": "−0.6645"}, {"measurement": "log2FoldChange", "setting": "HHIPL2 (ENSG00000143512)", "result": "−0.6841"}, {"measurement": "log2FoldChange", "setting": "HID1 (ENSG00000167861)", "result": 1.325}, {"measurement": "log2FoldChange", "setting": "HLA-DMA (ENSG00000204257)", "result": "−0.582"}, {"measurement": "log2FoldChange", "setting": "HLA-DMB (ENSG00000242574)", "result": "−0.6646"}, {"measurement": "log2FoldChange", "setting": "HLA-DPB1 (ENSG00000223865)", "result": "−0.696"}, {"measurement": "log2FoldChange", "setting": "HLA-DRA (ENSG00000204287)", "result": "−0.641"}, {"measurement": "log2FoldChange", "setting": "HLA-V (ENSG00000181126)", "result": 1.398}, {"measurement": "log2FoldChange", "setting": "HS6ST2 (ENSG00000171004)", "result": "−0.588"}, {"measurement": "log2FoldChange", "setting": "HSD3B1 (ENSG00000203857)", "result": "−0.6356"}, {"measurement": "log2FoldChange", "setting": "HSPA2 (ENSG00000126803)", "result": "−0.6741"}, {"measurement": "log2FoldChange", "setting": "IFI27 (ENSG00000165949)", "result": "−0.6194"}, {"measurement": "log2FoldChange", "setting": "IFI27L1 (ENSG00000165948)", "result": "−0.5945"}, {"measurement": "log2FoldChange", "setting": "IGFBP5 (ENSG00000115461)", "result": "−0.631"}, {"measurement": "log2FoldChange", "setting": "IGSF11 (ENSG00000144847)", "result": "−0.5994"}, {"measurement": "log2FoldChange", "setting": "IL24 (ENSG00000162892)", "result": 2.412}, {"measurement": "log2FoldChange", "setting": "IMMP2L (ENSG00000184903)", "result": "−0.6662"}, {"measurement": "log2FoldChange", "setting": "ITGB2 (ENSG00000160255)", "result": 1.646}, {"measurement": "log2FoldChange", "setting": "KCNK1 (ENSG00000135750)", "result": 4.668}, {"measurement": "log2FoldChange", "setting": "KCNQ5 (ENSG00000185760)", "result": "−0.6919"}, {"measurement": "log2FoldChange", "setting": "KIAA0319L (ENSG00000142687)", "result": "−0.5992"}, {"measurement": "log2FoldChange", "setting": "KIF1A (ENSG00000130294)", "result": 6.604}, {"measurement": "log2FoldChange", "setting": "KIRREL1 (ENSG00000183853)", "result": "−0.6846"}, {"measurement": "log2FoldChange", "setting": "KISS1 (ENSG00000170498)", "result": 1.679}, {"measurement": "log2FoldChange", "setting": "KITLG (ENSG00000049130)", "result": "−0.5925"}, {"measurement": "log2FoldChange", "setting": "KLK2 (ENSG00000167751)", "result": 2.321}, {"measurement": "log2FoldChange", "setting": "KRT15 (ENSG00000171346)", "result": 1.605}, {"measurement": "log2FoldChange", "setting": "KRT34 (ENSG00000131737)", "result": 3.32}, {"measurement": "log2FoldChange", "setting": "KRT73-AS1 (ENSG00000257495)", "result": 2.888}, {"measurement": "log2FoldChange", "setting": "KRT75 (ENSG00000170454)", "result": 1.915}, {"measurement": "log2FoldChange", "setting": "LBH (ENSG00000213626)", "result": "−0.6972"}, {"measurement": "log2FoldChange", "setting": "LCK (ENSG00000182866)", "result": 1.307}, {"measurement": "log2FoldChange", "setting": "LCN2 (ENSG00000148346)", "result": 1.647}, {"measurement": "log2FoldChange", "setting": "LDHD (ENSG00000166816)", "result": 1.623}, {"measurement": "log2FoldChange", "setting": "LDLR (ENSG00000130164)", "result": "−0.588"}, {"measurement": "log2FoldChange", "setting": "LIFR (ENSG00000113594)", "result": "−0.5862"}, {"measurement": "log2FoldChange", "setting": "LINC00520 (ENSG00000258791)", "result": 2.38}]}]}
